Data set [1] can be described thus: Induction of IP-10 secretion in human THP-1 cells assessed as maximal efficacy by ELISA relative to control. It is filed as functional. For orientation: ELISA stands for enzyme-linked immunosorbent assay.
A short description of data set [2]: Activation of IRF-mediated immune response in human THP1-Dual KO-STING cells co-expressing ISRE reporter assessed as normalized luciferase gene expression by measuring relative luciferase units at 50 uM incubated for 24 hrs by QUANTI Luc based microplate reader method. It is filed as functional.
Data set [3] relates to RAW264.7. Nature of the data set: Induction of IL-6 secretion in mouse RAW264.7 cells at 2 uM incubated for 24 hrs by ELISA. It is filed as functional, cell-based.
For data set [4], the system named is RAW264.7. Nature of the data set: Induction of IP-10 secretion in mouse RAW264.7 cells at 0.64 to 10000 nM by ELISA. It is filed as functional, cell-based. The settings on record: dose 0.64-10000 nM.
A further data set relates to PBMC. As to the kind of experiment: Induction of IFN-beta secretion in human PBMC cells at 1.6 to 1000 nM by ELISA. It is filed as functional, cell-based. Conditions: dose 1.6-1000 nM.
Data set [5] has as its system RAW264.7. Nature of the data set: Induction of TNF-alpha secretion in mouse RAW264.7 cells at 0.625 uM incubated for 24 hrs by ELISA. It is filed as functional, cell-based.
Data set [6] has as its target Nuclear factor NF-kappa-B complex (Homo sapiens) (UniProt Q00653+P19838+Q04206). Nature of the data set: Activation of NF-kappaB mediated pro-inflammatory effector proteins in human THP-1 cells at 2 to 10 nM incubated for 4 hrs by western blot analysis. It is filed as cell-based. Conditions: filed as activator, dose 2-10 nM. In general terms: A western blot detects proteins with antibodies after separation by electrophoresis.

Data set [7] concerns RAW264.7. As to the kind of experiment: Activation of NF-kappaB mediated pro-inflammatory effector proteins in mouse RAW264.7 cells at 100 to 500 nM for incubated for 3 hrs by western blot analysis. It is filed as cell-based. Conditions: filed as activator, dose 100-500 nM.
Data set [8] in a line: Terminal half life in BALB/c mouse at 3 mg/kg, iv by LC-MS/MS analysis. It is filed as ADME, organism-based. Conditions: in vivo, read-out: beta t1/2 (converted).
Data set [9] in a line: Volume of distribution at steady state in BALB/c mouse at 3 mg/kg, iv by LC-MS/MS analysis. It is filed as ADME, organism-based. Conditions: in vivo, read-out: Vdss.
The nature of data set [10]: Clearance in BALB/c mouse at 3 mg/kg, iv by LC-MS/MS analysis. The settings on record: BALB/c, in vivo. It is filed as ADME, organism-based.
Data set [11] in a line: AUClast in BALB/c mouse at 3 mg/kg, iv by LC-MS/MS analysis. It is filed as ADME, organism-based. Set-up: time 0 - last, dose 3 mg/kg, route iv. The settings on record: in vivo.
Data set [12] can be described thus: AUCinfinity in BALB/c mouse at 3 mg/kg, iv by LC-MS/MS analysis. It is filed as ADME, organism-based. On the set-up: time infinity, dose 3 mg/kg, route iv. Conditions: BALB/c, in vivo.
Data set [13] has as its system CT26. As to the kind of experiment: Antitumor immunity activity against mouse CT26 cells xenografted in BALB/c mouse model assessed as tumor growth inhibition at 1.5 mg/kg, iv measured after 8 days. It is filed as functional, organism-based. Conditions: time 8.0 day.
Data set [14] can be described thus: Toxicity in BALB/c mouse xenografted with mouse CT26 cells assessed as effect on body weight at 1.5 mg/kg, iv measured after 8 days. It is filed as organism-based. Conditions: in vivo, 192 h, time 8 day.
Data set [15] has as its system CT26. As to the kind of experiment: Immunological memory derived cancer inhibition in mouse CT26 cells inoculated in 1.5 mg/kg, iv for 8 days treated/cured BALB/c mouse model assessed as tumor recurrence followed by re-inoculation of cells. It is filed as functional, organism-based. The settings on record: time 8.0 day.
The subject of data set [16] is CT26. Nature of the data set: Antitumor immunity activity against mouse CT26 cells xenografted in BALB/c mouse model assessed as tumor growth inhibition at 0.015 mg/kg, iv measured after 8 days. It is filed as functional, organism-based. The settings on record: time 8.0 day.
Data set [17] can be described thus: Toxicity in BALB/c mouse xenografted with mouse CT26 cells assessed as body weight loss at 0.015 mg/kg, iv measured after 8 days. It is filed as organism-based. The settings on record: in vivo, 192 h, time 8 day.
In data set [18] the target is T1, Stimulator of interferon genes protein (Homo sapiens, UniProt Q86WV6). Conditions: THP1-Dual, filed as activator, dose 50.0 µM, time 24.0 hrs.
T1 sequence (Q86WV6 whole entry): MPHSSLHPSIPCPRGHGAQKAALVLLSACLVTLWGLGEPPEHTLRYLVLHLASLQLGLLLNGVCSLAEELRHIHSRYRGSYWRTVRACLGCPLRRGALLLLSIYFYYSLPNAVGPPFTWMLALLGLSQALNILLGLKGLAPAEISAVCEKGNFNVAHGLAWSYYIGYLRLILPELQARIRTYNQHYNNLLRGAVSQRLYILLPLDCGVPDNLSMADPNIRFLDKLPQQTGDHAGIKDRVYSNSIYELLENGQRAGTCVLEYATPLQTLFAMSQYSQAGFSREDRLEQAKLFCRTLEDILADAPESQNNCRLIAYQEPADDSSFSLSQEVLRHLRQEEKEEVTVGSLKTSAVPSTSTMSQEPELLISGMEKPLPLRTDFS
For data set [19], the target named is T1, Stimulator of interferon genes protein. Nature of the data set: Binding affinity to recombinant human His-tagged STING by measuring fluorescent signals in the presence of d2 labelled STING wild type ligand by HTRF based microplate reader analysis.
Data set [20] can be described thus: Solubility of the compound in DMSO at 50 to 100 uM incubated for 72 hrs. It is filed as physicochemical. Conditions: dose 50-100 µM.
The next data set deals with THP1-Dual. As to the kind of experiment: Cytotoxicity against human wild type THP1-Dual cells assessed as residual cell viability by CellTiter96 Aqueous One Solution Cell Proliferation Assay. It is filed as functional. On the set-up: concentration or dose not given beside the values.
A short description of data set [21]: Cytotoxicity against human THP1-Dual KO-STING cells assessed as residual cell viability by CellTiter96 Aqueous One Solution Cell Proliferation Assay. It is filed as functional. On the set-up: concentration or dose not given beside the values.
The target of data set [22] is T2, Stimulator of interferon genes protein (Mus musculus) (UniProt Q3TBT3).
T2 sequence (whole entry): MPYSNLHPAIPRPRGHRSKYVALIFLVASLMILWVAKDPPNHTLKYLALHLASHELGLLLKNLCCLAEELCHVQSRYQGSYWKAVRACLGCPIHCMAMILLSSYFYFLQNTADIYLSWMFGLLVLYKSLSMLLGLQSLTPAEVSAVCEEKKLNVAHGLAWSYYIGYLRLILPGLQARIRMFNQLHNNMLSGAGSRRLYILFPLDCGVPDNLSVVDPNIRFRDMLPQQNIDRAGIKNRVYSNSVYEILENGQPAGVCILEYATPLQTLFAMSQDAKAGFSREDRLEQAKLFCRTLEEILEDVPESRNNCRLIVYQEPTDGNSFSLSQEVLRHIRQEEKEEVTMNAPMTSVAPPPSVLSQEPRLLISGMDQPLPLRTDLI
As to the kind of experiment: Activation of STING mediated immune response in mouse RAW264.7 cells assessed as induction of IFNbeta secretion at 5000 to 20000 nM measured after 24 hrs by ELISA. It is filed as cell-based. Conditions: filed as activator, dose 5000-20000 nM.

The target of data set [23] is T1, Stimulator of interferon genes protein. Nature of the data set: Activation of STING mediated immune response in human THP-1 cells assessed as induction of IP-10 secretion at 500 to 5000 nM measured after 24 hrs by ELISA. It is filed as cell-based. Conditions: filed as activator, dose 500-5000 nM.
Data set [24] has the same target. Nature of the data set: Activation of STING mediated immune response in human THP-1 cells assessed as induction of IFNbeta secretion at 500 to 5000 nM measured after 24 hrs by ELISA. The settings on record: filed as activator, dose 500-5000 nM. It is filed as cell-based.
For data set [25], the target named is T2, Stimulator of interferon genes protein (Mus musculus). Nature of the data set: Activation of STING mediated immune response in mouse RAW264.7 cells assessed as induction of IP-10 secretion at 5000 to 20000 nM measured after 24 hrs by ELISA. It is filed as cell-based. Conditions: filed as activator, dose 5000-20000 nM.

The structures appear in SMILES notation. Activity calls are given as the source filed them. The calls are words filed in the database; no cut-off is given here.

The values that follow come from ChEMBL document CHEMBL5154810, “Development of Potent Immune Modulators Targeting Stimulator of Interferon Genes Receptor” (J Med Chem, 2022).

Sequence of Nuclear factor NF-kappa-B complex (Homo sapiens) (P19838 whole entry, looked up): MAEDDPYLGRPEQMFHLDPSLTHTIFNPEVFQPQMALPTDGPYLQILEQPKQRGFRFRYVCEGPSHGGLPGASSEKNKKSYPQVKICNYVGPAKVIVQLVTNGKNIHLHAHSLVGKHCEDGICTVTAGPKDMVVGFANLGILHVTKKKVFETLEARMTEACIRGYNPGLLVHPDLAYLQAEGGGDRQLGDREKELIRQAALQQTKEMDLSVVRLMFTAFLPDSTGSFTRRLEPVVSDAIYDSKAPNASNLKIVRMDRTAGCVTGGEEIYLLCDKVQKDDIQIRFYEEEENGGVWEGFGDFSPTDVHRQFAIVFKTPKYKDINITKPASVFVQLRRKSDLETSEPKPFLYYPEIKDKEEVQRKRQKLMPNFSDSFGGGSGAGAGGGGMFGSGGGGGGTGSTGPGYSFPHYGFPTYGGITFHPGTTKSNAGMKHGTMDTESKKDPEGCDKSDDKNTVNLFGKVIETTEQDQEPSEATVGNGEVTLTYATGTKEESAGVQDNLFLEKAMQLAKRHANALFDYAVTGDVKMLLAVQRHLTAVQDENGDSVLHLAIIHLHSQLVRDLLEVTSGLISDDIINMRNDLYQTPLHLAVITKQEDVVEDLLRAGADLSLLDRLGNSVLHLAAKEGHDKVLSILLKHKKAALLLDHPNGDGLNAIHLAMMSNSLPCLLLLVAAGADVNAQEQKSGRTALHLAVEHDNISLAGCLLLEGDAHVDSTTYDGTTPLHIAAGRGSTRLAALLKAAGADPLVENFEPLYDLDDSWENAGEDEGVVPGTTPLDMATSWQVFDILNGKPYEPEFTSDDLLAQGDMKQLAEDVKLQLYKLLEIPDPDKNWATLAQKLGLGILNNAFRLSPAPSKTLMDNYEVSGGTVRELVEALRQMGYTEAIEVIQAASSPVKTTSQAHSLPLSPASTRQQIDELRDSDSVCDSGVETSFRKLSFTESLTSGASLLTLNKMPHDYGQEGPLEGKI
Sequence of Nuclear factor NF-kappa-B complex (Homo sapiens) (Q00653 whole entry, looked up): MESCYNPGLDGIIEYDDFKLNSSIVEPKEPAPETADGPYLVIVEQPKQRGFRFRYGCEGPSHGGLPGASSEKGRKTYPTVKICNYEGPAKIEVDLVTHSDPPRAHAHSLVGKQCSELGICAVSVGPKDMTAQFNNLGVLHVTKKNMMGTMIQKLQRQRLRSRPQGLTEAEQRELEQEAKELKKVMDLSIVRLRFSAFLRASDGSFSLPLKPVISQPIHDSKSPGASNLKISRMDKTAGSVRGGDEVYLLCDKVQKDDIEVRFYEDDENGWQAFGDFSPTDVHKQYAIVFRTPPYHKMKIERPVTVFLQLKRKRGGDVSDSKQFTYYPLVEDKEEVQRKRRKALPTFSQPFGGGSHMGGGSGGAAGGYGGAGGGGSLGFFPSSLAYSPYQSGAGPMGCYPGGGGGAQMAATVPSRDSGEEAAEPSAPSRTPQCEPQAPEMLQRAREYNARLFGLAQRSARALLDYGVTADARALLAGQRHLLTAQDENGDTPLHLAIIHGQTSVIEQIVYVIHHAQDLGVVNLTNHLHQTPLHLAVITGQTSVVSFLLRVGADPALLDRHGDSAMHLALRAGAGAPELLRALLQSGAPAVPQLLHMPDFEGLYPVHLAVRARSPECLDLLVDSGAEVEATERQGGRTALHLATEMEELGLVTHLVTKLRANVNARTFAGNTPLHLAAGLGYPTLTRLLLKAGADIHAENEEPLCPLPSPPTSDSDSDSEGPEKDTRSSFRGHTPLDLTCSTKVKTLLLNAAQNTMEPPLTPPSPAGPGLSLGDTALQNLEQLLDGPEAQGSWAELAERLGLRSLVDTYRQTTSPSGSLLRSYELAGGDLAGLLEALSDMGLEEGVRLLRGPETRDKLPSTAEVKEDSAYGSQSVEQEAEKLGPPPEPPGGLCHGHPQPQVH
Sequence of Nuclear factor NF-kappa-B complex (Homo sapiens) (Q04206 whole entry, looked up): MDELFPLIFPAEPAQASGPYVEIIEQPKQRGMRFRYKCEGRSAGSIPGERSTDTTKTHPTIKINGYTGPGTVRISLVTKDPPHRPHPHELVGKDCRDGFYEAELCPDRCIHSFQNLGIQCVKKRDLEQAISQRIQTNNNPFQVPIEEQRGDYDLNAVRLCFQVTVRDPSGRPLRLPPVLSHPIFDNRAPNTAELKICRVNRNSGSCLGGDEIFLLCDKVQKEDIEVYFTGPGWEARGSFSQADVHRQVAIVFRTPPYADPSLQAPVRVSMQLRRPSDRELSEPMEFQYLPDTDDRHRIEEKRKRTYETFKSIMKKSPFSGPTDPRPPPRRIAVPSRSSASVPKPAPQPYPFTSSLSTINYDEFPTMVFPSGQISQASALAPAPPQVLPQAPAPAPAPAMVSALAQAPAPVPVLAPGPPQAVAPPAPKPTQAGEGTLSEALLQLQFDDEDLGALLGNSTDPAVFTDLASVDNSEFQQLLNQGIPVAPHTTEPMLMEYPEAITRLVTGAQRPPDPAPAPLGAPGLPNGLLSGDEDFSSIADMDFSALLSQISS

As for `CCn1nc(C)cc1C(=O)NCCCOc1cc(C(N)=O)cc2nc(NC(=O)c3cc(C)nn3CC)n(C/C=C/Cn3c(NC(=O)c4cc(C)nn4CC)nc4cc(C(N)=O)cc(OC)c43)c12`, in data set [1], the Emax (as a rule, the maximal effect, on the per cent scale that the assay sets) was 325%. In addition, the RLU in [2] amounted to 0.8; in [18] it was 100. Moreover, the result (in the data set with RAW264.7 [3]; in the data set with RAW264.7 [4]; with PBMC; in the data set on RAW264.7 [5]; in data set [6]; in the data set with RAW264.7 [7]) was Active. Besides, the result in the data set on CT26 [13], in the data set on CT26 [15] and in the data set with CT26 [16] was Active. The half-life in data set [8] is 1.75 h. Also, the Vd in data set [9] worked out at 1.81 L/kg. Further, the clearance (usually a measure of how efficiently the substance is removed, as volume per time) in data set [10] was 12 mL/min/kg. Also, the AUC(0-t) (in general, the area under the concentration-time curve up to a stated or last time point) in data set [11] worked out at 4240 ng·h/mL. Besides, the AUC(0-inf) (usually the area under the concentration-time curve extrapolated to infinity) in data set [12] came out at 4300 ng·h/mL. Moreover, the Activity entry in [14] and in data set [17] was “Non-Toxic” throughout.
Take `CCn1nc(C)cc1C(=O)Nc1nc2cc(C(N)=O)ccc2n1CCCCn1c(NC(=O)c2cc(C)nn2CC)nc2cc(C(N)=O)ccc21`: in [19], the IC50 – broadly, the concentration needed to halve the response being measured – was 6.16 nM. Besides, the solubility result in [20] is “Insoluble”.
Consider `CCn1nc(C)cc1C(=O)/N=c1\[nH]c2cc(C(N)=O)cc(OC)c2n1C/C=C/Cn1/c(=N/C(=O)c2cc(C)nn2CC)[nH]c2cc(C(N)=O)cc(OCCCN3CCOCC3)c21`, for which the Emax in data set [1] was 136%. Moreover, the RLU worked out at 0.7 in data set [2] and 68.6 in data set [18]. Further, in the data set on THP1-Dual, the Activity was 83.1%. The result (in [6]; with RAW264.7 [7]) was Active.
Regarding `CCn1nc(C)cc1C(=O)/N=c1\[nH]c2cc(C(N)=O)ccc2n1CCCCn1/c(=N/C(=O)c2cc(C)nn2CC)[nH]c2cc(C(N)=O)ccc21`, the values for the RLU in data set [2] and in data set [18] were 0.8 and 97.8, respectively. Further, the Activity is on record as 97.4% in the data set on THP1-Dual and 93.8% in data set [21]. In addition, the outcome in [22], in data set [23], in data set [24] and in [25] was Active.
